Data published in PubChem BioAssay (NCI).
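Cultured in 96-well plates, cells were exposed to test compound for 48 hours across five concentrations. TGI: total growth inhibition.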

Columns and labels:
Assay in all cases: NCI tumour cell line growth inhibition, 48 h
[1] = test system: BT-549 breast
[2] = test system: DU-145 prostate
[3] = test system: HL-60(TB) leukemia
[4] = test system: M14 melanoma
[5] = test system: MCF7 breast
[6] = test system: MDA-MB-435
[7] = test system: MDA-N
[8] = test system: RXF 393 renal
[9] = test system: SF-539 CNS
[10] = test system: SNB-19 CNS
[11] = test system: TK-10 renal
[12] = test system: U251 CNS
[13] = test system: DLD-1 colon
[14] = test system: M19-MEL melanoma
[15] = test system: P388/ADR leukemia
[16] = test system: SN12K1 renal
[17] = test system: SNB-78 CNS
[18] = test system: XF 498 CNS
[19] = test system: DMS 114 small cell lung
[20] = test system: SR leukemia

CCOc1ccc2nc(-c3ccc(O)cc3)sc2c1
TGI [1]: > 100 µM | TGI [2]: > 100 µM | TGI [3]: 8.81 µM | TGI [4]: > 100 µM | TGI [5]: > 100 µM | TGI [6]: > 100 µM | TGI [7]: > 100 µM | TGI [8]: > 100 µM | TGI [9]: > 100 µM | TGI [10]: > 100 µM | TGI [11]: > 100 µM | TGI [12]: > 100 µM

CC1(C)CC23C4COC(=O)C2CCC1C3CC4=O (stereo not drawn)
TGI [13]: 42.6 µM | TGI [3]: 12.6 µM | TGI [14]: 40.7 µM | TGI [5]: 47.9 µM | TGI [15]: 84.5 µM | TGI [8]: 4.76 µM | TGI [9]: 45.1 µM | TGI [16]: 48.2 µM | TGI [10]: 81.2 µM | TGI [17]: 73.4 µM | TGI [12]: 50.7 µM | TGI [18]: 27.2 µM

O=[N+]([O-])c1nc(-c2ccccn2)[nH]c1[N+](=O)[O-]
TGI [13]: > 100 µM | TGI [19]: 38.9 µM | TGI [3]: > 100 µM | TGI [4]: > 100 µM | TGI [14]: > 100 µM | TGI [8]: > 100 µM | TGI [9]: > 100 µM | TGI [10]: > 100 µM | TGI [17]: > 100 µM | TGI [20]: > 100 µM | TGI [11]: > 100 µM | TGI [12]: > 100 µM | TGI [18]: > 100 µM

O=C1OC(c2ccccc2)=N/C1=C\c1cccnc1
TGI [1]: > 100 µM | TGI [3]: > 100 µM | TGI [4]: > 100 µM | TGI [5]: > 100 µM | TGI [6]: > 100 µM | TGI [8]: > 100 µM | TGI [9]: > 100 µM | TGI [10]: > 100 µM | TGI [20]: > 100 µM | TGI [11]: > 100 µM | TGI [12]: > 100 µM

N/C(=N\N=C/c1ccccc1O)NO
TGI [13]: > 45.6 µM | TGI [19]: 30.7 µM | TGI [3]: > 36 µM | TGI [14]: > 100 µM | TGI [5]: 26.5 µM | TGI [15]: 10.8 µM | TGI [8]: 25.9 µM | TGI [9]: 28.3 µM | TGI [16]: > 100 µM | TGI [10]: > 91.3 µM | TGI [17]: > 96.6 µM | TGI [12]: > 100 µM | TGI [18]: 37.4 µM

COc1cc2c(cc1OC)-c1cc3ccccc3c[n+]1CC2
TGI [1]: > 100 µM | TGI [2]: > 100 µM | TGI [4]: > 100 µM | TGI [5]: > 100 µM | TGI [6]: > 100 µM | TGI [7]: > 100 µM | TGI [8]: > 100 µM | TGI [9]: > 100 µM | TGI [10]: > 100 µM | TGI [20]: > 100 µM | TGI [11]: > 100 µM | TGI [12]: > 100 µM

Nc1ncnc2c1ncn2C1OC(COP(=O)(O)O)C(O)C1O (stereo not drawn)
TGI [13]: > 31.6 µM | TGI [19]: > 50 µM | TGI [3]: > 50 µM | TGI [14]: > 50 µM | TGI [5]: > 50 µM | TGI [15]: > 50 µM | TGI [8]: > 50 µM | TGI [9]: > 50 µM | TGI [16]: > 50 µM | TGI [10]: > 50 µM | TGI [17]: > 50 µM | TGI [12]: > 50 µM | TGI [18]: > 44.7 µM

O=C1OC[C@@H]2[C@@H](O)CCCCCN12
TGI [1]: > 100 µM | TGI [2]: > 100 µM | TGI [3]: > 100 µM | TGI [5]: > 100 µM | TGI [6]: > 100 µM | TGI [7]: > 100 µM | TGI [8]: > 100 µM | TGI [9]: > 100 µM | TGI [10]: > 100 µM | TGI [20]: > 100 µM | TGI [11]: > 100 µM | TGI [12]: > 100 µM
